The values that follow come from US9440988B2, “Regulators of the hedgehog pathway, compositions and uses related thereto” (John Hopkins University School of Medicine, priority 1008, dated 2016).

The experiment relates to Sonic hedgehog signaling. Nature of the experiment: Clonal NIH-3T3 line with stably integrated Shh-responsive luciferase reporter (Shh-LIGHT/Shh-LIGHT2), inhibition of Sonic hedgehog induction. The class given is cell-based, mouse. The note with it: for improvement of inhibitory activity by oxidation of the hydroxyl group to a ketone: versus the corresponding 3-hydroxyl compound (18, 20, 22, 33, 40, 50); for effect of N-alkyl modification on ability to block Shh signaling / effect of addition on inhibitory activity: SAR statement, relative to cyclopamine. An excerpt: FIG. 2 relates to a sensitive assay for Shh signaling in NIH-3T3 cells. (A) Purification of cholesterol- and palmitate-modified mouse Sonic hedgehog signaling domain ShhNp. Detergent-insoluble proteolipid complexes were isolated from 293 cells expressing full-length Shh (M. K. Cooper, J. A. Porter, K. E. Young, P. A. Beachy, Science 280, 1603 (1998)), and ShhNp was purified to apparent homogeneity by immunoaffinity chromatography. […] We therefore used the detergent insolubility of cholesterol-modified ShhN and affinity chromatography to purify the processed ShhN protein (ShhNp) from a human 293 cell line engineered to express the full length mouse Shh construct. Detergent-insoluble complexes (DIGs) were isolated as described by Brown and Rose (1992), with the following modifications. Cells from a 150 mm dish were lysed and collected in 2 mL of lysis solution (10 mM NaHPO4, pH 6.5, 150 mM NaCl, 0.5 mM PMSF, 1% Triton X-100, 2 μg/ml Pepstatin A, 10 μg/ml leupeptin, 5 μg/ml aprotinin, 2 μg/ml E64) at 4° C. […] Low-density, flocculent material was collected (from original position of 18.125% step), diluted 5-fold in 10 mM NaHPO4, pH 6.5, 150 mM NaCl and harvested by centrifugation at 20,000×g for 15 min (all at 4° C.). […] Mass standards migrated as indicated. […] NIH-3T3 cells cotransfected with Gli-luc reporter and TK promoter-driven Renilla luciferase control were treated with the indicated concentrations of ShhNp for 2 days. Confluent cultures of NIH-3T3 cells were plated at 1:6 dilution to 24 or 96-well plates. On the following day, the cells were transfected with renilla luciferase (pRL-TK or pRL-SV40; Clontech) or β-galactosidase transfection control (10% w/w DNA), Gli-Luc reporter (40%) and the constructs indicated (50%) using Fugene 6 (Roche) transfection reagent (250 ng (24 well plate) or 100 ng (96 well plate) DNA/well, 3:1 ratio (v/w) of reagent to DNA). […] Firefly and Renilla luciferase and β-galactosidase activities were assayed from the cell lysates by luminometry using dual luciferase (Promega) and Galacto-Light (Tropix) kits, respectively. Luciferase activities are normalized relative to control; a representative experiment is shown. […] Error bars indicate one standard deviation. […] Cultures of Shh-LIGHT (open boxes) or SmoA1-LIGHT (filled diamonds) cells were plated to 96-well plates in a series of twofold dilutions. The NIH-3T3 cell clone Shh-LIGHT and Shh-LIGHT2 stably incorporating the Gli-luc reporter and TK-renilla vectors were established by cotransfection with a vector encoding G418 resistance (pSV-Neo), followed by selection with G418 and cell cloning. Subsequently, a clonal subline of Shh-LIGHT expressing activated Smo (SmoA1-LIGHT) was established using an expression vector that allows hygromycin selection (pcDNA3.1+ hygro; Invitrogen). […] The Shh-LIGHT cells were treated with 4 nM ShhNp, and Gli-luciferase reporter activity was assayed after 24 h. Fold induction of the reporter (% of maximum is relative to equally dense Shh-LIGHT control culture) and cell densities (% of maximum Renilla luciferase activity) were measured at the end of the experiment. Error bars indicate one standard deviation (quadruplicate wells).
Relative reporter activity is normalized to maximum. […] Error bars in A and B indicate one standard deviation.
For orientation: In a reporter assay the amount or activity of a reporter protein is the signal.

Setting [1] is: Mus musculus, NIH3T3, concentration for 50% inhibition of Sonic hedgehog induction, Table II.
Where [2] appears, read: concentration for 50% inhibition of Sonic hedgehog induction, Table II.

Regarding `CC1=C2C[C@H]3[C@@H](CC=C4CC(=O)CC[C@@]43C)[C@@H]2CC[C@]12O[C@@H]1C[C@H](C)CN(CCNC(=O)CCc3ccccc3)[C@H]1[C@H]2C` [Compound 19, 3-Keto, N—(N′-dihydrocinnamoylaminoethyl)cyclopamine], the “improvement of inhibitory activity by oxidation of the hydroxyl group to a ketone” value (“improvement of inhibitory activity” for short) is “approximately two-fold”. This compound also returned an IC50 under setting [1] greater than 10 nM.
Regarding `CC1=C2C[C@H]3[C@@H](CC=C4C[C@@H](OC(=O)NCCNC(=O)CCc5ccccc5)CC[C@@]43C)[C@@H]2CC[C@]12O[C@@H]1C[C@H](C)CN[C@H]1[C@H]2C` [Compound 8, 3O-dihydrocinnamoylethylenediaminecarbamoyl cyclopamine], the “IC50 relative to cyclopamine (times higher)” value is roughly 100 times and the “potency relative to cycloposine (3) (times weaker)” value is reported as 10 times.
Take `CC1=C2C[C@H]3[C@@H](CC=C4C[C@@H](O)CC[C@@]43C)[C@@H]2CC[C@]12O[C@@H]1C[C@H](C)CN(CCNC(=O)CCCCCCCCCCCNC(=O)C(F)(F)F)[C@H]1[C@H]2C` [Compound 29, N—(N′—(N″-Trifluoroacetyl aminododecanoyl) aminoethyl)cyclopamine]: the “effect of N-alkyl modification on ability to block Shh signaling” value (“effect of N-alkyl modification” for short) was “do not significantly diminish” and the “effect of addition on inhibitory activity” value is “accentuate inhibitory activity”. Also, the IC50 under setting [1] was greater than 100 nM.
The compound `CCC(=O)NCCN1C[C@@H](C)C[C@H]2O[C@]3(CC[C@@H]4C(=C3C)C[C@H]3[C@H]4CC=C4C[C@@H](O)CC[C@@]43C)[C@H](C)[C@@H]21` [Compound 30, N—(N′-Propionyl aminoethyl)cyclopamine] displayed an IC50 under setting [1] greater than 100 nM.
As to `CC1=C2C(=O)[C@H]3[C@@H](CC=C4C[C@@H](OC(=O)NCCNC(=O)CCc5ccccc5)CC[C@@]43C)[C@@H]2CC[C@]12O[C@@H]1C[C@H](C)CN[C@H]1[C@H]2C` [Compound 12, 3O-dihydrocinnamoylethylenediaminecarbamoyl jervine], the “IC50 relative to cyclopamine (times higher)” value is recorded as roughly 100 times and the “potency relative to cycloposine (3) (times weaker)” value turned out to be 10 times. The compound further returned an IC50 under setting [1] greater than 10000 nM.
Turning to `CC(=O)CCC(=O)N[C@@H](Cc1ccc(C(=O)c2ccccc2)cc1)C(=O)NCCN1C[C@@H](C)C[C@H]2O[C@]3(CC[C@@H]4C(=C3C)CC3[C@H]4CC=C4CC(=O)CC[C@@]43C)[C@H](C)[C@@H]21` (stereo partly shown) [Compound 51, 3-Keto N—(N′—(N″-Levulinoyl(4-benzoylphenylalaminoyl))aminoethyl) cyclopamine], the “improvement of inhibitory activity” value was “approximately two-fold”. For the same compound, the IC50 under setting [1] was greater than 1000 nM.
As for `CC1=C2C[C@H]3[C@@H](CC=C4C[C@@H](O)CC[C@@]43C)[C@@H]2CC[C@]12O[C@@H]1C[C@H](C)CN(CCNC(=O)C(CCCCNC(=O)CCCCCNC(=O)CCCC[C@@H]3SC[C@@H]4NC(=O)N[C@@H]43)NC(=O)c3ccc(C(=O)c4ccccc4)cc3)[C@H]1[C@H]2C` (stereo partly shown) [Compound 58, N—(N′—(N″,N′″-(4-Benzoylbenzoyl)(N″″-biotinoylaminocaproyl)lysine)aminoethyl)cyclopamine], the IC50 under setting [1] is greater than 10000 nM.
The same measure, in the same setting: the value for `CCC(=O)NCCCCCC(=O)NCCN1C[C@@H](C)C[C@H]2O[C@]3(CC[C@@H]4C(=C3C)C[C@H]3[C@H]4CC=C4C[C@@H](O)CC[C@@]43C)[C@H](C)[C@@H]21` [Compound 42, N—(N′—(N″-Propionyl aminocaproyl)aminoethyl)cyclopamine] was greater than 100 nM.
Turning to `CC1=C2C[C@H]3[C@@H](CCC4=CC(=O)CC[C@@]43C)[C@@H]2CC[C@]12O[C@@H]1C[C@H](C)CN(CCNC(=O)CCCCCNC(=O)CCCCC3SC[C@@H]4NC(=O)N[C@H]34)[C@H]1[C@H]2C` (stereo partly shown) [Compound 41, 3-Enone, N—(N′—(N″-Biotinoylaminocaproyl)aminoethyl)cyclopamine], the “effect of enone formation (C5-C6 olefin migrated to C4-C5) on potency” value was “does not appear to affect compound potency” and the “improvement of inhibitory activity” value is on record as “approximately two-fold”. The IC50 under setting [1] was greater than 100 nM.
For “N—(N′—(N″,N′″-(4-Benzoylbenzoyl) (N″″-digoxigenin 3-O-methylcarbonyl aminocaproyl)lysine)aminoethyl)cyclopamine [Compound 57]”, the IC50 under setting [2] is greater than 10000 nM.
`CC1=C2C[C@H]3[C@@H](CC=C4CC(=O)CC[C@@]43C)[C@@H]2CC[C@]12O[C@@H]1C[C@H](C)CN(CCNC(=O)CCCCCNC(=O)CCc3ccccc3)[C@H]1[C@H]2C` [Compound 34, 3-Keto, N—(N′—(N″-dihydrocinnamoylaminocaproyl)aminoethyl)cyclopamine]: the “potency relative to cyclopamine” value is given as “ten-fold greater” and the “improvement of inhibitory activity” value was “approximately two-fold”. The compound also returned an IC50 (Mus musculus, NIH3T3, concentration for 50% inhibition of Sonic hedgehog induction) of 30 nM. The IC50 under setting [1] is greater than 10 nM.
Regarding `CC1=C2C[C@H]3[C@@H](CC=C4C[C@@H](O)CC[C@@]43C)[C@@H]2CC[C@]12O[C@@H]1C[C@H](C)CN(CCNC(=O)CCCCCNC(=O)CCCCC3SC[C@@H]4NC(=O)N[C@H]34)[C@H]1[C@H]2C` (stereo partly shown) [Compound 40, N—(N′—(N″-Biotinoyl aminocaproyl)aminoethyl)cyclopamine], the “effect of N-alkyl modification” value is reported as “do not significantly diminish”. Moreover, the IC50 under setting [1] is greater than 100 nM.
For the compound `CC1=C2C[C@H]3[C@@H](CC=C4C[C@@H](O)CC[C@@]43C)[C@@H]2CC[C@]12O[C@@H]1C[C@H](C)CN(CCNC(=O)CCCCCNC(=O)CCc3ccccc3)[C@H]1[C@H]2C` [Compound 33, N—(N′—(N″-Dihydrocinnamoyl aminocaproyl)aminoethyl)cyclopamine], the “effect of N-alkyl modification” value is given as “do not significantly diminish” and the “effect of addition on inhibitory activity” value was “accentuate inhibitory activity”. Also, the IC50 under setting [2] was greater than 10 nM.
For `CC1=CC(C)=[N+]2C1=Cc1ccc(CCC(=O)NCCCCCC(=O)NCCN3C[C@@H](C)C[C@H]4O[C@]5(CC[C@@H]6C(=C5C)C[C@H]5[C@H]6CC=C6C[C@@H](O)CC[C@@]65C)[C@H](C)[C@@H]43)n1[B-]2(F)F` [Compound 43, N—(N′—(N″-BODIPY FL aminocaproyl)aminoethyl)cyclopamine], in that order: “do not significantly diminish”, “accentuate inhibitory activity” and greater than 100 nM.
For “N—(N′—(N″-Azidoiodophenylpropionyl aminocaproyl)aminoethyl)cyclopamine [Compound 39]” the same measures were “do not significantly diminish”, “accentuate inhibitory activity” and greater than 100 nM.
As to `CC1=C2C[C@H]3[C@@H](CC=C4C[C@@H](O)CC[C@@]43C)[C@@H]2CC[C@]12O[C@@H]1C[C@H](C)CN(CCNC(=O)CCc3ccccc3)[C@H]1[C@H]2C` [Compound 18, N—(N′-Dihydrocinnamoyl aminoethyl)cyclopamine], the IC50 under setting [1] was greater than 100 nM.
Consider `CC1=C2C[C@H]3[C@@H](CC=C4CC(=O)CC[C@@]43C)[C@@H]2CC[C@]12O[C@@H]1C[C@H](C)CN(CCNC(=O)c3ccc(C(=O)c4ccccc4)cc3)[C@H]1[C@H]2C` [Compound 21, 3-Keto, N—(N′-(4-benzoylbenzoyl)aminoethyl)cyclopamine], for which the “improvement of inhibitory activity” value is listed as “approximately two-fold”. Under setting [1], the concentration for half-maximal inhibition (IC50) was greater than 10 nM.

A word on the IC50: it is the midpoint of a concentration-inhibition curve. A lower IC50 goes with greater potency in that assay.
